Among the test systems are BT-549 breast; LOX IMVI melanoma; MCF7 breast; MDA-MB-231 breast; NCI-H460 lung; OVCAR-5 ovarian; OVCAR-8 ovarian; PC-3 prostate; RXF 393 renal; SK-OV-3 ovarian; T-47D breast; SR leukemia.
Holding throughout (experiment): NCI anticancer screen, dose series, 48 h

The source of these data is PubChem BioAssay (NCI).

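1) Cells in 96-well plates. 2) Compound, 48 h, 5 concentrations. 3) Linear interpolation between surrounding doses. 4) Unreached endpoint = highest concentration. The concentration for full growth arrest is given as TGI.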

On to `Cn1c(N)c(/C=C/C(=O)Oc2ccccc2)c(=O)n(C)c1=O`, for which the TGI in the assay with BT-549 breast, with LOX IMVI melanoma, with MCF7 breast, with MDA-MB-231 breast, in the assay on NCI-H460 lung and with OVCAR-5 ovarian was greater than 100 µM in each case. For the same compound, the TGI in the assay on OVCAR-8 ovarian, in the assay with PC-3 prostate, in the assay on RXF 393 renal, in the assay with SK-OV-3 ovarian and in the assay with T-47D breast was greater than 100 µM each time.

With `CC(=O)c1cccc(Nc2nc3ccccc3c3[nH]c4ccccc4c23)c1`, the TGI was greater than 100 µM in the assay with BT-549 breast; 4.22 µM in the assay on MCF7 breast; 51.6 µM with MDA-MB-231 breast; 4.36 µM with NCI-H460 lung; 96.3 µM in the assay on OVCAR-5 ovarian; 74.9 µM in the assay on OVCAR-8 ovarian. Further, the TGI with PC-3 prostate was 40.9 µM; in the assay on SK-OV-3 ovarian, 43.7 µM; in the assay with T-47D breast it was 33.5 µM.

Take `CC(C)(C)OC(=O)C1/C(=C/CBr)CN1C(=O)OC(C)(C)C` (configuration not stated): the TGI with BT-549 breast was determined as 36.2 µM; in the assay with LOX IMVI melanoma it was 11.4 µM; in the assay with MCF7 breast, 28.9 µM; in the assay with NCI-H460 lung it was 34.9 µM; with OVCAR-5 ovarian, 35.2 µM; in the assay on OVCAR-8 ovarian, 44.2 µM. Also, the TGI was 28.1 µM with PC-3 prostate and 38.2 µM with SK-OV-3 ovarian.

In the case of `COc1ccc(NC(/C(C(=O)C(=O)/C=C(\O)c2ccccc2)=C(\O)c2ccccc2)c2ccc(OC)cc2)cc1` (configuration not stated), the TGI in the assay with BT-549 breast, with MCF7 breast, in the assay on MDA-MB-231 breast, with NCI-H460 lung, with OVCAR-5 ovarian and with OVCAR-8 ovarian was greater than 100 µM in each case. The TGI in the assay on PC-3 prostate was greater than 100 µM; in the assay with RXF 393 renal, greater than 100 µM; in the assay on SK-OV-3 ovarian, greater than 100 µM; in the assay on SR leukemia it was greater than 100 µM; in the assay with T-47D breast, 81.4 µM.

Regarding `CN1CCN(Cc2ccccc2)CC1CC#N` (configuration not stated), the TGI in the assay on BT-549 breast, in the assay on LOX IMVI melanoma, in the assay with MCF7 breast, in the assay on MDA-MB-231 breast, in the assay with NCI-H460 lung and with OVCAR-5 ovarian was greater than 100 µM in each case. In addition, the TGI in the assay on OVCAR-8 ovarian, in the assay with RXF 393 renal, with SK-OV-3 ovarian, in the assay on SR leukemia and in the assay with T-47D breast was greater than 100 µM throughout.

In the case of `CC(C)(C)NC(=S)N/N=C/c1ccccn1`, the TGI in the assay with BT-549 breast is greater than 100 µM; with LOX IMVI melanoma, greater than 76.7 µM; in the assay with MDA-MB-231 breast it was greater than 100 µM; with NCI-H460 lung it was greater than 100 µM; with OVCAR-5 ovarian, greater than 100 µM; in the assay on OVCAR-8 ovarian it was greater than 40.7 µM. For the same compound, the TGI in the assay with PC-3 prostate, with RXF 393 renal, in the assay with SK-OV-3 ovarian and in the assay on T-47D breast was greater than 100 µM in each case.

Consider `Oc1ccc(/C=N/c2nccs2)c(O)c1`, for which the TGI in the assay on BT-549 breast, with LOX IMVI melanoma, in the assay on MCF7 breast, in the assay with MDA-MB-231 breast, with NCI-H460 lung and in the assay on OVCAR-5 ovarian was greater than 100 µM throughout. For the same compound, the TGI with OVCAR-8 ovarian, with PC-3 prostate, in the assay on RXF 393 renal and in the assay with SK-OV-3 ovarian was greater than 100 µM in each case.

Turning to `CCOC(=O)c1ccc(N(CCOS(=O)(=O)c2ccc(C)cc2)CCOS(=O)(=O)c2ccc(C)cc2)cc1`, the TGI in the assay on BT-549 breast is greater than 100 µM; in the assay with LOX IMVI melanoma, greater than 100 µM; in the assay with MCF7 breast it was greater than 100 µM; with MDA-MB-231 breast, 86.8 µM; in the assay with NCI-H460 lung, greater than 100 µM; with OVCAR-5 ovarian it was greater than 100 µM. Besides, the TGI in the assay with OVCAR-8 ovarian was greater than 100 µM; with PC-3 prostate, 75 µM; in the assay on RXF 393 renal, greater than 100 µM.

As to `CC(=O)N1N=C(c2ccc3ccccc3c2O)CC1c1ccc(N(C)C)cc1` (configuration not stated), the TGI in the assay on BT-549 breast, in the assay with MCF7 breast, with MDA-MB-231 breast, with NCI-H460 lung, in the assay with OVCAR-5 ovarian and in the assay on OVCAR-8 ovarian was greater than 100 µM each time. For the same compound, the TGI with PC-3 prostate, in the assay on RXF 393 renal, with SK-OV-3 ovarian, in the assay with SR leukemia and with T-47D breast was greater than 100 µM each time.

In the case of `CC1N=C(c2ccccc2)OC1=O` (configuration not stated), the TGI in the assay on BT-549 breast, in the assay on LOX IMVI melanoma, in the assay with MCF7 breast, with MDA-MB-231 breast, in the assay with NCI-H460 lung and with OVCAR-5 ovarian was greater than 100 µM each time. Besides, the TGI in the assay with OVCAR-8 ovarian, in the assay with PC-3 prostate, with SK-OV-3 ovarian and in the assay with T-47D breast was greater than 100 µM throughout.

For the compound `CCOC(=O)c1nc2cc(F)cc(F)c2[nH]c1=O`, the TGI with BT-549 breast, with LOX IMVI melanoma, in the assay with MCF7 breast, in the assay on MDA-MB-231 breast, in the assay on NCI-H460 lung and in the assay on OVCAR-5 ovarian was greater than 100 µM throughout. The TGI with OVCAR-8 ovarian, with PC-3 prostate, with SK-OV-3 ovarian, with SR leukemia and with T-47D breast was greater than 100 µM in each case.

Regarding `O=C(CCN1CCCC1)c1ccc(Oc2ccc(F)cc2)cc1`, the TGI was greater than 100 µM with BT-549 breast; greater than 100 µM with LOX IMVI melanoma; 32.3 µM in the assay on MCF7 breast; greater than 100 µM with MDA-MB-231 breast; greater than 100 µM with NCI-H460 lung; greater than 100 µM in the assay with OVCAR-5 ovarian. For the same compound, the TGI was greater than 100 µM in the assay on OVCAR-8 ovarian, greater than 100 µM with PC-3 prostate, 74.4 µM in the assay on RXF 393 renal and greater than 100 µM in the assay with SK-OV-3 ovarian.

`C[C@H]1S[C@H](c2c(F)cccc2F)n2c1nc1ccccc12`: the TGI in the assay with BT-549 breast, with MCF7 breast, in the assay with MDA-MB-231 breast, in the assay with NCI-H460 lung, with OVCAR-5 ovarian and with OVCAR-8 ovarian was greater than 100 µM each time. Also, the TGI in the assay with PC-3 prostate, with RXF 393 renal, in the assay with SK-OV-3 ovarian and with T-47D breast was greater than 100 µM in each case.

In the case of `CC12CCC(=O)[C@@]1(C)CCCC2O` (some centres not stated), the TGI with BT-549 breast, in the assay on LOX IMVI melanoma, in the assay with MCF7 breast, in the assay on MDA-MB-231 breast, with NCI-H460 lung and in the assay with OVCAR-5 ovarian was greater than 100 µM in each case. The TGI in the assay with OVCAR-8 ovarian, in the assay with PC-3 prostate, in the assay on SK-OV-3 ovarian, in the assay with SR leukemia and with T-47D breast was greater than 100 µM in each case.
